Experimental data as given in PMC10145898, “Drug Repurposing of FDA Compounds against α-Glucosidase for the Treatment of Type 2 Diabetes: Insights from Molecular Docking and Molecular Dynamics Simulations” (Pharmaceuticals, 2023).

Molecular target: α-glucosidase
Assay: pNPG hydrolysis absorbance assay at […] nm, pH […] °C
Assay type: biochemical

IC50: 1.26 ± 0.7 µM
Compound: COc1cc2c(cc1O)CCN[C@]21CS[C@@H]2c3c(OC(C)=O)c(C)c4c(c3[C@H](COC1=O)N1[C@@H]2[C@H]2c3c(cc(C)c(OC)c3O)C[C@@H]([C@@H]1O)N2C)OCO4 [Trabectedin]
